US9364426B2, “Method of making coated microstructures” (Georgia Tech Research Corporation, priority 2005, dated 2016)
One block for each molecule: values may come before it.

Assays:
[1] = Delivery from individual coated microneedles in vitro into pig cadaver skin; type: in vitro ADME; conditions: 20 s insertion into pig cadaver skin
Procedure: After removing the microneedles, fluorescence micrographs of coated microneedles and histological skin sections were collected using an Olympus IX70 fluorescent microscope with a CCD camera (RT Slider, Diagnostic Instruments). Brightfield micrographs were collected using an Olympus SZX12 stereomicroscope with a CCD camera (Leica DC 300, Leica Microsystems, Bannockburn, Ill., USA). Histological examination of pig cadaver skin was conducted on frozen sections. Pig cadaver skin was pierced with microneedles for 20 s, frozen in OCT compound (Tissue-Tek, 4583, Sakura Finetek, Torrance, Calif., USA), and cut into 10 μm-thick sections using a cryostat (Cryo-Star HM 560MV, Microm, Waldorf, Germany).

[2] = In vitro dissolution of microneedle coating in pig cadaver skin; type: in vitro ADME; conditions: single microneedles n=3
Source text: To assess the in vitro dissolution time, single microneedles (n=3) coated with vitamin B, calcein, or sulforhodamine, made as in Example 1, were inserted into pig cadaver skin for 10 s or 20 s. Upon removal, these microneedles were imaged by fluorescence microscopy to detect residual coating.

[3] = cited from earlier work
[4] = coated onto microneedles; six months storage under nitrogen at room temperature; cited from earlier work
guinea pigs = conditions: model antigen delivered from coated microneedles; cited from earlier work
[5] = 10 s insertion into pig cadaver skin
[6] = 20 s insertion into pig cadaver skin

- residue on the skin after insertion [1]: No residue was observed
- dissolution of microneedle coating (residual coating by fluorescence microscopy) [2, 5]: majority of the coating was dissolved
- dissolution of microneedle coating (residual coating by fluorescence microscopy) [2, 6]: completely dissolved
Molecule: O=C(O)CN(CC(=O)O)Cc1cc2c(cc1O)Oc1cc(O)c(CN(CC(=O)O)CC(=O)O)cc1C21OC(=O)c2ccccc21 [calcein]
- distribution in skin, histology sections [1]: distribution of calcein along the periphery of the insertion point

Molecule: COc1cc(/C=C/C(=O)CC(=O)/C=C/c2ccc(O)c(OC)c2)ccc1O [curcumin]
- solubility in water [3]: negligible

Molecule: NC(=O)CC[C@@H]1NC(=O)[C@H](Cc2ccccc2)NC(=O)[C@H](Cc2ccc(O)cc2)NC(=O)CCSSC[C@@H](C(=O)N2CCC[C@H]2C(=O)N[C@H](CCCN=C(N)N)C(=O)NCC(N)=O)NC(=O)[C@H](CC(N)=O)NC1=O [desmopressin]
- integrity after storage [4]: 98%

- dissolution of microneedle coating (residual coating by fluorescence microscopy) [2, 5]: majority of the coating was dissolved
- dissolution of microneedle coating (residual coating by fluorescence microscopy) [2, 6]: completely dissolved
Molecule: sulforhodamine

B1: ovalbumin (protein, UniProt P01012 2-386, looked up)
Ovalbumin: GSIGAASMEFCFDVFKELKVHHANENIFYCPIAIMSALAMVYLGAKDSTRTQINKVVRFDKLPGFGDSIEAQCGTSVNVHSSLRDILNQITKPNDVYSFSLASRLYAEERYPILPEYLQCVKELYRGGLEPINFQTAADQARELINSWVESQTNGIIRNVLQPSSVDSQTAMVLVNAIVFKGLWEKAFKDEDTQAMPFRVTEQESKPVQMMYQIGLFRVASMASEKMKILELPFASGTMSMLVLLPDEVSGLEQLESIINFEKLTEWTSSNVMEERKIKVYLPRMKMEEKYNLTSVLMAMGITDVFSSSANLSGISSAESLKISQAVHAAHAEINEAGREVVGSAEAGVDAASVSEEFRADHPFLFCIKHIATNAVLFFGRCVSP
notes: model ovalbumin antigen delivered from coated microneedles
- immune response (guinea pigs): strong immune response
